According to patent US20080181882A1, “Neurgulin 1 (NRG1) - ErbB4 signaling as a target for the treatment of schizophrenia” (The University of Pennsylvania, priority 2006, published 2008):
“Also recorded” adds a separate entry of the source. Values belong to the molecule of their own block, whether it stands above or below them.

Tests used:
erbB4 [1] = biological target: T1, erbB4 (Homo sapiens, UniProt Q15303); assay: NRG1 stimulation-induced erbB4 tyrosine phosphorylation in postmortem brain tissue (erbB4 IP, phosphotyrosine immunoblot); assay type: cell-based; settings: postmortem PFC tissue stimulated 37° C. 30 min; NRG1-GST or GST 200 ng/ml; NMDA 10 μM + 1 μM glycine
T1 construct: Postmortem PFC tissues were gradually thawed and sliced using a McIlwain tissue chopper; from tissue; host or cells: postmortem human prefrontal cortex (Brodmann areas 9, 10 and/or 46), schizophrenic and control subjects
Description: Postmortem PFC tissues were gradually thawed and sliced using a McIlwain tissue chopper (200 μm×200 μm×3 mm). Tissue slices ([…]) were suspended in ice-cold Krebs-Ringer solution containing 118 mM NaCl, 4.8 mM KCl, 1.3 mM CaCl2, 1.2 mM KH2 PO4, 1.2 mM MgSO4, 25 mM NaHCO3, 10 mM glucose, 100 μM ascorbic acid, […] leupeptin, 0.2 mM PMSF, 25 μg/ml pepstatin A and 0.01 U/ml soybean trypsin inhibitor (pH 7.4). We incubated ˜20 mg of tissue with Krebs-Ringer solution containing either 200 ng/ml GST fusion protein or a mixture of neuregulin-1α-GST and neuregulin-1β-GST (200 ng/ml each), at 37° C. for 30 min. During stimulation, the incubation mixture was aerated with 95% O2, 5% CO2 every 10 min for 1 min. Ligand stimulation was terminated by adding of 1 ml ice-cold Ca^2+-free Krebs-Ringer solution containing 0.5 mM EGTA. Tissue slices were harvested by a brief centrifugation and homogenized in 0.25 ml ice-cold immunoprecipitation buffer (same make-up as homogenization buffer described above). The homogenates was centrifuged at 800 g for 10 min and the supernatant sonicated for 10 s. The proteins were solubilized in 0.5% digitonin, 0.2% sodium cholate and 0.5% NP-40 for 60 min. Lysates were cleared by centrifugation at 50,000 g for 5 min and diluted with 0.75 ml of immunoprecipitation buffer. Protein concentrations were determined using the Bradford method (Bio-Rad). […]

erbB4 [2] = assay: NRG1-induced erbB4 activation in PFC slices of mice after chronic haloperidol treatment; assay type: in vivo, mouse; settings: chronic haloperidol implant, 12 weeks
Description: (A) […] slices of PFCs of control and haloperidol treated mice were incubated with or without NRG 1 for 30 min. Tissue lysates were immunoprecipitated for erbB4 and were probed with antiphosphotyrosine or anti-erbB4. (B) Densitometric analysis of erbB4 activation in (A). Graph constructed for the ratios of the intensities for pY-erbB4 over erbB4 for control and haloperidol treated mice. NRG1 induced tyrosine phosphorylation was attenuated in haloperidol treated mice (t(6)=[…]);
(§1) Adult CH3 mice were implanted with a Medisorb bioabsorbable polymer disc (Alkermes Inc.), fabricated with haloperidol (n=7) or polymer vehicle only (n=7). These implants were previously shown to release haloperidol for at least 5 months with a calculated release rate of approximately 2 mg/kg per day. After 12 weeks of treatment, mice were sacrificed and the pooled serum haloperidol concentration was measured. Animal experiments were approved by the Institutional and Animal Care and Use Committee of the University of Pennsylvania.
To assess potential confounding effects of demographic or clinical variables, the levels of NRG1 and erbB4 isoforms were assessed, as well as the activation of erbB4, ERK and AKT, for correlations with sex, age, brain pH, postmortem interval and, for the schizophrenia group, exposure to an antipsychotic drug 1 month before death. No significant correlations were found. […]

[3] = Serum haloperidol concentration in implanted mice; assay type: in vivo; settings: CH3, mouse, other: implanted bioabsorbable polymer disc, pooled serum, mice with haloperidol implant
Description: as §1

T1 sequence (Q15303 26-1308): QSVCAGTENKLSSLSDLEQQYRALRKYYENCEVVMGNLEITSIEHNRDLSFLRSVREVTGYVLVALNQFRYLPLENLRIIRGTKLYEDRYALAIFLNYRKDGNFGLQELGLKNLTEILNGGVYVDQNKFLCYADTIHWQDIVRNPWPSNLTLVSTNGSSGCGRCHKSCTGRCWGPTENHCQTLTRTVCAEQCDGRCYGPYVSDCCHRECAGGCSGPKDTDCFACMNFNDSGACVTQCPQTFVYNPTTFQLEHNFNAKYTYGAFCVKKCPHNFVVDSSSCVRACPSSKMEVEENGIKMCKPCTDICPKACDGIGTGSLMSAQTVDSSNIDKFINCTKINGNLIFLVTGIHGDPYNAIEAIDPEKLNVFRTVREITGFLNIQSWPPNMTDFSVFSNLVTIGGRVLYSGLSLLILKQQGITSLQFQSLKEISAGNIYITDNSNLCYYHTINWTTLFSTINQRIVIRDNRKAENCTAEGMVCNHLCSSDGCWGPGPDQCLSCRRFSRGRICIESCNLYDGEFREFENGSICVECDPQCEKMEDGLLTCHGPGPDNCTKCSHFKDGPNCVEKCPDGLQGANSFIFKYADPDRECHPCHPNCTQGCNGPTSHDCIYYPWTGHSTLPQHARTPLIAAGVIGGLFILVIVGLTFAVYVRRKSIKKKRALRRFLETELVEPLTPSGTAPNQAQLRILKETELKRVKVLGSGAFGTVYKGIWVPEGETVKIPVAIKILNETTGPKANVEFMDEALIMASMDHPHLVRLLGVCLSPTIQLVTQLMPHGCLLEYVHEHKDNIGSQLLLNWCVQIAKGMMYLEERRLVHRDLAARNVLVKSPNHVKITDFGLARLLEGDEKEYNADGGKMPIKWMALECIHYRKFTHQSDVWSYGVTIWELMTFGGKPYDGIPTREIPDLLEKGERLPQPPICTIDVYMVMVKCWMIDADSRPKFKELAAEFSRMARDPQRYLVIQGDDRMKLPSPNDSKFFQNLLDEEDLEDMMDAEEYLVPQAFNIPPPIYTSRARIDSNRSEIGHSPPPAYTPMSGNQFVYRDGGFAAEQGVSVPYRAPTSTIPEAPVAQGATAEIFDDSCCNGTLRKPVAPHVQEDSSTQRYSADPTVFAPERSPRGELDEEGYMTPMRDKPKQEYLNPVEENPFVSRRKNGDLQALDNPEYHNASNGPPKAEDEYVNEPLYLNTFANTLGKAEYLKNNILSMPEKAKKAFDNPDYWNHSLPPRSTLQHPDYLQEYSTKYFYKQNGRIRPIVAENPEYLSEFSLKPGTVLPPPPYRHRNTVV

Molecule: CN[C@H](CC(=O)O)C(=O)O [NMDA, N-methyl-Daspartate]
tyrosine phosphorylation of erbB4 (erbB4 [1]): did not enhance

concentration at 12 weeks [3]: 3.1 ng/mL
Molecule: O=C(CCCN1CCC(O)(c2ccc(Cl)cc2)CC1)c1ccc(F)cc1 [haloperidol]
NRG1-induced erbB4 activation (pY-erbB4 over erbB4), haloperidol treated vs vehicle mice (erbB4 [2]): significantly reduced; also recorded: attenuated

tyrosine phosphorylation of erbB4 (erbB4 [1]): Neither enhanced
B1: BDNF: another trophic factor for a different tyrosine kinase receptor (protein, UniProt P23560 19-247, looked up)
Neurotrophic factor BDNF …: APMKEANIRGQGGLAYPGVRTHGTLESVNGPKAGSRGLTSLADTFEHVIEELLDEDQKVRPNEENNKDADLYTSRVMLSSQVPLEPPLLFLLEEYKNYLDAANMSMRVRRHSDPARRGELSVCDSISEWVTAADKKTAVDMSGGTVTVLEKVPVSKGQLKQYFYETKCNPMGYTKEGCRGIDKRHWNSQCRTTQSYVRALTMDSKKRIGWRFIRIDTSCVCTLTIKRGR
